# Several values for one entry are separate records, joined by “and”; a condition that tells them apart may be missing. Equal entries are not always repeated. Entries after “also recorded” stand apart in the source; their conditions may differ.
# Tests used:
# [1] = Wheel box test (NACE publication ID182), corrosion of carbon steel coupons in CO2-saturated brine/oil; details: for corrosion inhibitor performance (in words): wheel box test
# Text: To determine the efficacy of the compositions as corrosion inhibitors, a wheel box test was used. It is a testing methodology from NACE publication ID182. The method is used to assess the degree of protection afforded to a metal surface that is in contact with water laden with carbon dioxide (C02). The wheel box test is a test that is often used in the field for comparative corrosion inhibitor performance tests. The standard test conditions used in the performance test are in Table 1.
# A continuous wheel box test procedure was used to compare the performance of the corrosion inhibitor formulations of the invention in mitigating the corrosion of carbon steel in solutions saturated with carbon dioxide. Into a set of bottles containing the desired brine and oil mixtures, Table 1, clean and pre-weighed coupons were immersed. The solution was purged with carbon dioxide, after which the solutions were dosed with the various concentrations of the formulations. After purging the headspace with carbon dioxide, the bottles were immediately capped to prevent aerial exposure.
# Blanks, comprising bottles of untreated mixtures, were used to determine the baseline corrosion rate under the test conditions. The bottles were placed on a rotating wheel under incubation at 80° C. for a period of 24 hours. Following the completion of the incubation, the bottles were retrieved and left to cooled to room temperature. The coupons were removed from the test solutions, cleaned, dried, sandblasted and re-weighed. By comparing the mass loss of the coupons immersed in treated solutions versus the mass loss for coupons placed in untreated solutions, the corrosion rate and protection efficiency were calculated.
# [2] = Physical stability / water solubility of the inhibitor formulation (observation); type: physicochemical; details: for physical stability of the formulation: 418.4 mM solution in water
# [3] = 5 ppm of Corrosion Inhibitor, low dosage comparison, method of Example 4
# [4] = 10 ppm of Corrosion Inhibitor, low dosage comparison, method of Example 4
# [5] = 25 ppm of Corrosion Inhibitor, low dosage comparison, method of Example 4
# [6] = 50 ppm of Corrosion Inhibitor, low dosage comparison, method of Example 4
# [7] = 5000 ppm inhibitor, 80° C., 24 hours, CO2 saturated, 80% ASTM Seawater brine / 20% LVT-200
# [8] = 20000 ppm inhibitor, 80° C., 24 hours, CO2 saturated, 80% ASTM Seawater brine / 20% LVT-200
# [9] = 50000 ppm inhibitor, 80° C., 24 hours, CO2 saturated, 80% ASTM Seawater brine / 20% LVT-200
physical stability of the formulation [2],Structure (SMILES),"% Protection [1, 3] [%]","% Protection [1, 4] [%]","% Protection [1, 5] [%]","% Protection [1, 6] [%]","% Protection [1, 7] [%]",corrosion inhibitor performance (in words) [1],"% Protection [1, 8] [%]","% Protection [1, 9] [%]",further results
,"CC(=O)O.CCCCCCCC/C=C\CCCCCCCC1=NCCN1CCNC1OC(CO)C(O)C(O)C1O (stereo not shown) [Formula 1, (Z)-2-((2-(2-(heptadec-8-en-1-yl)-4,5-dihydro-1H-imidazol-1-yl)ethyl)amino)-6-(hydroxymethyl)tetrahydro-2H-pyran-3,4,5-triol acetate salt]",22,32,54,63,94,perform significantly better than the comparative sample even at low dosage rates,,,"% Protection ([1]; 500 ppm inhibitor, 80° C., 24 hours, CO2 saturated, 80% ASTM Seawater brine / 20% LVT-200): 95%; % Protection ([1]; 1000 ppm inhibitor, 80° C., 24 hours, CO2 saturated, 80% ASTM Seawater brine / 20% LVT-200, listed as Formulation 1, acetate salt): 93% and 94%; % Protection ([1]; 2000 ppm inhibitor, 80° C., 24 hours, CO2 saturated, 80% ASTM Seawater brine / 20% LVT-200, listed as Formulation 1, acetate salt): 93% and 94%; % Protection ([1]; 10000 ppm inhibitor, 80° C., 24 hours, CO2 saturated, 80% ASTM Seawater brine / 20% LVT-200, listed as Formulation 1, acetate salt): 95% and 94%; % Protection ([1]; 20000 ppm inhibitor, 80° C., 24 hours, CO2 saturated, 80% ASTM Seawater brine / 20% LVT-200, listed as Formulation 1, acetate salt): 96% and 95%; % Protection ([1]; 50000 ppm inhibitor, 80° C., 24 hours, CO2 saturated, 80% ASTM Seawater brine / 20% LVT-200, listed as Formulation 1, acetate salt): 95% and 94%"
physically unstable,"CCCCCCCC/C=C\CCCCCCCC1=NCCN1CCN [Comparative Formulation, Acetate, reference compound]",14,24,42,55,89,robust even at low treatment doses,89,90,"% Protection ([1]; 500 ppm inhibitor, 80° C., 24 hours, CO2 saturated, 80% ASTM Seawater brine / 20% LVT-200, Acetate): 88% and 89%; % Protection ([1]; 1000 ppm inhibitor, 80° C., 24 hours, CO2 saturated, 80% ASTM Seawater brine / 20% LVT-200, Acetate): 89% and 90%; % Protection ([1]; 2000 ppm inhibitor, 80° C., 24 hours, CO2 saturated, 80% ASTM Seawater brine / 20% LVT-200, Acetate): 90% and 89%; % Protection ([1]; 10000 ppm inhibitor, 80° C., 24 hours, CO2 saturated, 80% ASTM Seawater brine / 20% LVT-200, Acetate): 89% and 90%; average protection efficiency ([1]; average of Table 3 (500-50000 ppm)): 89%"
physically stable,"CC(=O)[O-].CCCCCCCC/C=C\CCCCCCCC1=[N+](CC(O)c2ccccc2)CCN1CCNC1OC(CO)C(O)C(O)C1O (stereo not shown) [Formula 2, (Z)-2-(heptadec-8-en-1-yl)-3-(2-hydroxy-2-phenylethyl)-1-(2-((3,4,5-trihydroxy-6-(hydroxymethyl)tetrahydro-2H-pyran-2-yl)amino)ethyl)-4,5-dihydro-1H-imidazol-3-ium acetate salt]",28,36,57,73,,,94,94,"solubility in water [2]: high solubility in water; % Protection ([1]; 500 ppm inhibitor, 80° C., 24 hours, CO2 saturated, 80% ASTM Seawater brine / 20% LVT-200, listed as Formulation 2, acetate salt): 91% and 92%; % Protection ([1]; 1000 ppm inhibitor, 80° C., 24 hours, CO2 saturated, 80% ASTM Seawater brine / 20% LVT-200): 92%; % Protection ([1]; 2000 ppm inhibitor, 80° C., 24 hours, CO2 saturated, 80% ASTM Seawater brine / 20% LVT-200, listed as Formulation 2, acetate salt): 91% and 92%; % Protection ([1]; 5000 ppm inhibitor, 80° C., 24 hours, CO2 saturated, 80% ASTM Seawater brine / 20% LVT-200, listed as Formulation 2, acetate salt): 92% and 93%; % Protection ([1]; 10000 ppm inhibitor, 80° C., 24 hours, CO2 saturated, 80% ASTM Seawater brine / 20% LVT-200, listed as Formulation 2, acetate salt): 93% and 94%; corrosion inhibitor performance (in words) ([1]; acetate salt): greatly improved corrosion inhibitor performance even at low dosages; also recorded: highly effective; also recorded: perform significantly better than the comparative sample even at low dosage rates"

# From patent publication US20250369124A1, “IMIDAZOLINE-SUGAR CONJUGATE COMPOSITIONS AND METHODS FOR INHIBITING CORROSION” (Ecolab USA Inc., priority 2024, published 2025)
